Patent publication EP3355943B1, “METHODS AND SYSTEMS FOR TREATING MEDICAL DEVICES AND FLUIDS” (Ethicon, Inc., priority 2015, dated 2017)
Like-named read-outs stand apart in the source and are kept apart here.

What was measured:
[1] = Kinetics of removal of LPS with different agitation techniques in presence of stearate salts; type: biochemical; settings: for Endotoxin Detected (EU): 5mL SRW, baseline 1,502; for Percent (%) Removed: vs SRW Baseline
Protocol: 5mL of SRW was added to each of the tubes. Each solution was tested for endotoxin removal after agitation based on with sonication, vortexing, or test tube rolling. Sonication samples were sonicated at each indicated time interval for 30 seconds at a magnitude of 30. Vortex samples were vortexed at each indicated time interval for 30 seconds at 2500 RPM. Rolling samples were constantly rolling at 10 rpm. The samples were tested on the MCS for endotoxin at 1 minute, 20 minutes, 40 minutes, 60 minutes, and 80 minutes.

[2] = Testing of various sources of LPS: detection of LPS after adding CaSt to spiked water; type: biochemical
Protocol: Therefore, for the methods described above, the activity of endotoxin was tested with various sources of endotoxin. Laboratory grown endotoxin is purified while natural endotoxin will be present with other substances such as proteins and phospholipids.
The laboratory grown endotoxin used in this experiment was supplied by Charles River Laboratories.
Natural airborne endotoxin was captured using an electret filter. Electret filters are produced from dielectric polymer fibers that develop an electrical charge when air flows past them, capturing the endotoxin along with other particles. The endotoxin was extracted from the filter by placing the filter in endotoxin free water for an extended period of time.
Two other natural sources of endotoxin were obtained from water samples in the surrounding environment. One source was a pool of sitting rain water and other being a small puddle on the side of the Raritan River. The sitting rain water (SRW) was purified via chlorination and 0.2 µm filter. The Raritan River Water (RRW) was not altered in anyway. The same testing procedure was conducted for all sources of endotoxin.
Table 11. Detection of LPS after adding CaSt to test tubes containing water spiked with LPS

[3] = Suture testing in aqueous suspension of CaSt: endotoxin detected on LPS-contaminated suture; type: biochemical
Protocol: Treatment of sutures in aqueous suspensions of CaSt was performed as follows: Suture used was VICRYL® (Polyglactin 910) suture made of a copolymer made from 90% glycolide and 10% L-lactide, Size 1, 27 inch pieces. […] Endosafe LAL Reagent Water (LRW) was used, manufactured by Charles River Laboratories, Charleston S.C..
Eight strands of suture were placed in tubing with LPS (endotoxin) solution for 10 minutes at a time. The sutures were dried for 20 minutes and then placed in round bottom tubes. Suspensions of 5% by weight CaSt in LAL Reagent Water were prepared. (0.5 g CaSt in 10 mL LRW). One suture was placed in each tube and vortexed in this solution for approximately 10 seconds. The sutures were removed and allowed to dry for 20 minutes and then placed in round bottom tubes. This was done for 3 sutures. Three pieces of suture, serving as the control, were not submerged in any solutions and placed in test tubes. 3 mL of LAL reagent water was added to each test tube, vortexed vigorously for 1 minute, and then placed in a hot water bath at 37°C for 1 hour. They were then removed, vortexed vigorously for 1 minute, diluted, and tested on the MCS system. […] These were also tested for endotoxin on the MCS. Table 4. Detection of LPS after adding CaSt to test tubes containing water spiked with LPS

[4] = type: in vivo; settings: female rats, observed 4 days
Protocol: An animal study was conducted with 30 female rats with weights ranging from 250-300g and acclimated for 5 days. All rats were dosed with intraperitoneal injections using 18 gauge needles. The rats were broken into 6 groups. A negative control (NC-1) dosed 5 rats with 5mL of normal saline solution. […] A positive control (PC-1) dosed 5 rats with 2.5 million EU in a 5mL saline solution. A second positive control (PC-2) was conducted dosing 5 rats with 5 million endotoxin units in a 5mL normal saline solution. Two experimental test groups were conducted.
The negative control samples also had no toxicity. Table 21. Results of animal study with CaSt dosing

[5] = Charles River Standard, 0.018 g Calcium Stearate, 8330 EU spiked
[6] = Charles River Standard, 0.05 g Calcium Stearate, 8330 EU spiked
[7] = Charles River Standard, 0.15 g Calcium Stearate, 8330 EU spiked
[8] = Charles River Standard, 0.25 g Calcium Stearate, 8330 EU spiked
[9] = Dust Filter Extraction Water, 0.01 g Calcium Stearate, 9280 EU spiked
[10] = Dust Filter Extraction Water, 0.25 g Calcium Stearate, 9280 EU spiked
[11] = RRW, 0.01 g Calcium Stearate, 4340 EU spiked
[12] = RRW, 0.1 g Calcium Stearate, 4340 EU spiked
[13] = RRW, 0.25 g Calcium Stearate, 4340 EU spiked
[14] = SRW, 0.01 g Calcium Stearate, 11100 EU spiked

SMILES: CCCCCCCCCCCCCCCCCC(=O)O [Calcium Stearate]
- removal of LPS (in words), comparison of salts of stearic acid ([1]; CaSt vs. other salt forms): more efficacious in removal of LPS
- Endotoxin Detected (EU) ([1]; Rolling, 1 minute): 1,230 EU
- Percent (%) Removed ([1]; Rolling, 1 minute): 18.1%
- Endotoxin Detected (EU) ([1]; Rolling, 20 minutes): 1,050 EU
- Percent (%) Removed ([1]; Rolling, 20 minutes): 30.1%
- Endotoxin Detected (EU) ([1]; Rolling, 40 minutes): 630 EU
- Percent (%) Removed ([1]; Rolling, 40 minutes): 58.1%
- Endotoxin Detected (EU) ([1]; Rolling, 60 minutes): 637 EU
- Percent (%) Removed ([1]; Rolling, 60 minutes): 57.6%
- Endotoxin Detected (EU) ([1]; Rolling, 80 minutes): 451 EU
- Percent (%) Removed ([1]; Rolling, 80 minutes): 70%
- Endotoxin Detected (EU) ([1]; Sonication, 1 minute): 270 EU
- Percent (%) Removed ([1]; Sonication, 1 minute): 82%
- Endotoxin Detected (EU) ([1]; Sonication, 20 minutes): 130 EU
- Percent (%) Removed ([1]; Sonication, 20 minutes): 91.3%
- Endotoxin Detected (EU) ([1]; Sonication, 40 minutes): 87.5 EU
- Percent (%) Removed ([1]; Sonication, 40 minutes): 94.2%
- Endotoxin Detected (EU) ([1]; Sonication, 60 minutes): 56.9 EU
- Percent (%) Removed ([1]; Sonication, 60 minutes): 96.2%
- Endotoxin Detected (EU) ([1]; Sonication, 80 minutes): 16.4 EU
- Percent (%) Removed ([1]; Sonication, 80 minutes): 98.9%
- Endotoxin Detected (EU) ([1]; Vortexing, 1 minute): 451 EU
- Percent (%) Removed ([1]; Vortexing, 1 minute): 70%
- Endotoxin Detected (EU) ([1]; Vortexing, 20 minutes): 301 EU
- Percent (%) Removed ([1]; Vortexing, 20 minutes): 80%
- Endotoxin Detected (EU) ([1]; Vortexing, 40 minutes): 139 EU
- Percent (%) Removed ([1]; Vortexing, 40 minutes): 90.7%
- Endotoxin Detected (EU) ([1]; Vortexing, 60 minutes): 173 EU
- Percent (%) Removed ([1]; Vortexing, 60 minutes): 88.5%
- Percent (%) Removed ([1]; Vortexing, 80 minutes): 93.1%
- percent of endotoxin recovered ([2]; 0.1 grams of calcium stearate and higher, all sources of endotoxin): under 5%
- Endotoxin Detected (EU) ([2]; Charles River Standard, 0.007 g Calcium Stearate, 8330 EU spiked): 3995 EU
- Endotoxin Detected (EU) [2, 5]: 1487.5 EU
- Percent of Endotoxin Detected [2, 5]: 17.9%
- Endotoxin Detected (EU) ([2]; Charles River Standard, 0.028 g Calcium Stearate, 8330 EU spiked): 235 EU
- Endotoxin Detected (EU) [2, 6]: 190.5 EU
- Percent of Endotoxin Detected [2, 6]: 2.3%
- Endotoxin Detected (EU) [2, 7]: 86.5 EU
- Percent of Endotoxin Detected [2, 7]: 1.0%
- Endotoxin Detected (EU) [2, 8]: 38.5 EU
- Percent of Endotoxin Detected [2, 8]: 0.5%
- Endotoxin Detected (EU) [2, 9]: 3440 EU
- Percent of Endotoxin Detected [2, 9]: 37.1%
- Endotoxin Detected (EU) [2, 10]: 28.5 EU
- Percent of Endotoxin Detected [2, 10]: 0.3%
- Endotoxin Detected (EU) [2, 11]: 960 EU
- Percent of Endotoxin Detected [2, 11]: 22.1%
- Endotoxin Detected (EU) [2, 12]: 165 EU
- Percent of Endotoxin Detected [2, 12]: 3.8%
- Endotoxin Detected (EU) [2, 13]: 70 EU
- Percent of Endotoxin Detected [2, 13]: 1.6%
- Percent of Endotoxin Detected ([2]; RRW, 0.35 g Calcium Stearate, 4340 EU spiked): 2.6%
- Endotoxin Detected (EU) [2, 14]: 2780 EU
- Percent of Endotoxin Detected [2, 14]: 25.0%
- Percent of Endotoxin Detected ([2]; SRW, 0.25 g Calcium Stearate, 11100 EU spiked): 1.0%
- Endotoxin Detected (EU) ([3]; Water with 5% Calcium Stearate solution tested after suture removal (samples 4-6)): <1.0 EU
- Average Endotoxin Detected (EU) ([3]; suture submerged in LAL Water w/ 5% Calcium Stearate, samples 4-6): 3.27 EU
- Average Change in Endotoxin Level (%) ([3]; suture submerged in LAL Water w/ 5% Calcium Stearate, vs. sutures not submerged (84 EU)): -96.1%
- Results (toxicity) ([4]; NC-2: 0.2 g Calcium Stearate in 5.0 mL normal saline, intraperitoneal, no endotoxin): No Toxicity Observed
- Results (toxicity) ([4]; T-1: 2,500,000 EU + 0.2g Calcium Stearate + normal saline (5.0 mL) dosed IP): No Toxicity Observed
- Results (toxicity) ([4]; T-1: 2,500,000 EU + 0.2g Calcium Stearate + normal saline (5.0 mL) dosed IP, listed as calcium stearate): no toxicity or adverse effects
- Results (toxicity) ([4]; T-2: 5,000,000 EU + 0.2g Calcium Stearate + normal saline (5.0 mL) dosed IP): No Toxicity Observed
- Results (toxicity) ([4]; T-2: 5,000,000 EU + 0.2g Calcium Stearate + normal saline (5.0 mL) dosed IP, listed as calcium stearate): no toxicity or adverse effects
